# The source made the active and inactive calls.
# Key:
# [1] = cervical cancer cell viability loss – HeLa, 24 h, plate reader, powder samples, set 3, cytotoxicity control, dose response (AID 651864); assay type: functional, cell-based
# [2] = target: T1, Voltage-gated N-type calcium channel alpha-1B subunit/Amyloid beta A4 precursor protein-binding family A member 1 (Homo sapiens, UniProt Q00975+Q02410); assay type: protein assay
# [3] = target: T2, Sentrin-specific protease 8 (Homo sapiens, UniProt Q96LD8); assay type: functional
# T2 sequence (Q96LD8 whole entry): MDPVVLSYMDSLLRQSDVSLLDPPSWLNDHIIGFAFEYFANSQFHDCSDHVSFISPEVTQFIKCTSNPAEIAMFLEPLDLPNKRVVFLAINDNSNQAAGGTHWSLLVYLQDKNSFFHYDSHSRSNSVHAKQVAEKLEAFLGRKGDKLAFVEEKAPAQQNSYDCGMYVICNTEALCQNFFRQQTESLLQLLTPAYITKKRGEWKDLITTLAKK
# [4] = target: T1, Voltage-gated N-type calcium channel alpha-1B subunit/Amyloid beta A4 precursor protein-binding family A member 1; assay type: protein assay; remark: listed apart in the source
# [5] = target: Glucose-6-phosphate 1-dehydrogenase (Homo sapiens, UniProt P11413); assay: inhibition of Homo sapiens G6PD, dose series – biochemical, fluorescence, selectivity assay for P. falciparum G6PD inhibitor project, dose response (AID 504792); assay type: functional
# [6] = target: T2, Sentrin-specific protease 8; assay type: functional; remark: listed apart in the source
# fMet-Leu-Phe receptor = fMet-Leu-Phe receptor (Homo sapiens, UniProt P21462); assay: formyl peptide receptor binders – dose response (AID 519); assay type: functional
# Chain of fMet-Leu-Phe receptor (P21462 whole entry): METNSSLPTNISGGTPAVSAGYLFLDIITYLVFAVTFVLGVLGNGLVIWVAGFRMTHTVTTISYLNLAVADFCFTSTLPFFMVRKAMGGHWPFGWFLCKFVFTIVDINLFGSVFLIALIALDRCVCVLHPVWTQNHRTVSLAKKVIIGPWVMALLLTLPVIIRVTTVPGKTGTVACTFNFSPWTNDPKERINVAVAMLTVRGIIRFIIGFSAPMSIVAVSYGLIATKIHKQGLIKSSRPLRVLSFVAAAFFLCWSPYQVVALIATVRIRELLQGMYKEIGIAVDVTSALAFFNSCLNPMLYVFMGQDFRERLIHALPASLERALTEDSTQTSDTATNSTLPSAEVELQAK
# [7] = viability loss in HepG2 hepatoma cells – cell-based, ATP luminescence, cherry-pick, activator set 2, cytotoxicity control, dose response (AID 1053143); assay type: functional
# [8] = target: Matrix metalloproteinase-14 (Homo sapiens, UniProt P50281); assay: Dose Response confirmation of uHTS hits for a small molecule inhibitors of MT1-MMP activation in a fluorescence assay set 1.; assay type: functional
# [9] = blockade of melanocortin 4 receptor signaling – cell-based, plate reader, cherry pick, counter-screen for LGR2 antagonist project, dose response (AID 743444); assay type: functional;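 further: transfected HEK 293 cells stimulated with alpha-MSH peptide; potency of inhibitors of the alpha-MSH evoked signal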
# [10] = A549 cell cytotoxicity, dose response, cytotoxicity control, plate reader, cherry-pick, antagonist series (AID 743412); assay type: functional, cell-based
# BJ [11] = assay: BJ-TERT-LT-ST fibroblast viability loss – cell-based, RAS-independent, luminescence, dose response (AID 1935); assay type: functional; settings: Homo sapiens;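 further: BJ fibroblasts immortalized with TERT plus LT and ST oncogenes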
# [12] = viability loss in HEK293 cells – cell-based, plate reader, cherry-picked samples, cytotoxicity control, dose response (AID 743446); assay type: functional
# INS1 = assay: INS-1E survival protection against cytokine death – cell-based, luminescence, retest, dose response (AID 449756); assay type: functional; settings: Rattus norvegicus;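 further: cell death triggered by IL-1 beta plus TNF-alpha plus IFN-gamma mixture; protective hits raise ATP signal compared with cytokine alone wells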
# cells [13] = assay type: functional, cell-based
# [14] = Luminescence Cell-Based Dose Confirmation HTS to Identify Inhibitors of Platelet Dense Granule Release. [Related pubchem assays: 1663 (Primary HTS), 1678 (Summary of Project)]; assay type: functional
# BJ [15] = assay: BJ-TERT fibroblast viability loss – cell-based, RAS-independent, luminescence, dose response (AID 1933); assay type: functional; settings: Homo sapiens
# [16] = toxicity toward HepG2 liver cells – cell-based, plate reader, cherry-pick, antagonist series, cytotoxicity control, dose response (AID 743416); assay type: functional
# BJ [17] = assay: cells; assay type: functional, cell-based; settings: Homo sapiens
# [18] = DRD fibroblast viability loss – cell-based, non-viral oncogenic, luminescence, dose response (AID 1934); assay type: functional; settings: Homo sapiens
# [19] = blockers of bursicon-stimulated LGR2 cAMP reporter – cell-based, HEK293, CRE-luciferase reporter, cherry pick, set 2, dose response (AID 743343); assay type: functional;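 further: transfected cells were stimulated with diluted bursicon conditioned medium after compound addition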
# cells [20] = assay type: functional, cell-based; remark: listed apart in the source
# [21] = target: Luciferin 4-monooxygenase (Photinus pyralis, UniProt P08659); assay: inhibition of purified Photinus pyralis luciferase – biochemical, luminescence, dose response (AID 1891)
# [22] = target: ATP-dependent translocase ABCB1 (Homo sapiens, UniProt P08183); assay: inhibition of P-gp mediated JC-1 efflux – Jurkat-DNR cells, flow cytometry, dose response (AID 1689); assay type: functional
# [23] = target: Broad substrate specificity ATP-binding cassette transporter ABCG2 (Homo sapiens, UniProt Q9UNQ0); assay: blockers of JC-1 export by ABCG2 – Ig-MXP3 cells, flow cytometry, dose response (AID 1690); assay type: functional
# [24] = target: Long-chain-fatty-acid--AMP ligase FadD28 (Mycobacterium tuberculosis, UniProt P9WQ59); assay: Fluorescence polarization aasay to screen for inhibitors that compete for the binding of FadD28 to a bisubstrate Measured in Biochemical System Using Plate Reader - 2147-01_Inhibitor_Dose_CherryPick_Activity.; assay type: functional, Mycobacterium tuberculosis H37Rv
# Chain of Long-chain-fatty-acid--AMP ligase FadD28 (P9WQ59 whole entry): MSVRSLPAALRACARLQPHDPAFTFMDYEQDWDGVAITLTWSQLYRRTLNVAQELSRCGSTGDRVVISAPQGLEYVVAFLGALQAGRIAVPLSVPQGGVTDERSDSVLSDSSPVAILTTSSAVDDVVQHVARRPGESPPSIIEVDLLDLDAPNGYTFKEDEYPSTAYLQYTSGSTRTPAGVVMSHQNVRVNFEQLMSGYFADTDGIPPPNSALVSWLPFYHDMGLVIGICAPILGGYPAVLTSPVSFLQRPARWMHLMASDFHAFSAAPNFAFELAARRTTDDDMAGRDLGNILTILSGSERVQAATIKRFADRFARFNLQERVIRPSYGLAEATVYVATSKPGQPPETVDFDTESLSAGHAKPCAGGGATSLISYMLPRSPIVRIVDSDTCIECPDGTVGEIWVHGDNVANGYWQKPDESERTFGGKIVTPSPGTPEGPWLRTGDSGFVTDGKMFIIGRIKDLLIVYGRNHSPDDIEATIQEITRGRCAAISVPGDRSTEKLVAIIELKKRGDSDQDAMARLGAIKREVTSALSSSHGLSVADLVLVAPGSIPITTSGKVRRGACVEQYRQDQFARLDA
# [25] = loss of viability in HepG2 cells – cell-based, CellTiter-Glo, cherry-picked, cytotoxicity control for Shn3 inhibitor project, dose response (AID 624134); assay type: functional
# [26] = non-specific 3'UTR reporter inhibition in Clone20-Shn3RL – cell-based, Renilla luciferase, cherry-picked, counter-screen for Shn3 inhibitor project, dose response (AID 624133); assay type: functional
# [27] = reduction of Shn3 3'UTR-driven luciferase in osteoblasts – cell-based, Clone20 osteoblasts, firefly luciferase, cherry-picked, dose response (AID 624132); assay type: functional;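 further: firefly luciferase luminescence from reporter carrying the Shn3 3'UTR in osteoblasts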
# [28] = Shn3 3'UTR reporter signal decrease – cell-based, Clone20 osteoblasts, firefly luciferase, cherry-pick, set 2, Schnurri-3 inhibitor project, dose response (AID 720490); assay type: functional;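 further: actives lower the luminescence signal as inhibitors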
# A549 = assay: viability loss in A549 cells – cell-based, plate reader, cherry-pick samples, cytotoxicity control, dose response (AID 687028); assay type: functional; settings: Homo sapiens
# [29] = viability loss in HeLa cells – cytotoxicity control for MgcRacGAP inhibitor project, dose response (AID 624300); assay type: functional
# Vero = assay: cells; assay type: functional; settings: Chlorocebus sabaeus
# [30] = miR-122Act:qPCR miR-122 Measured in Cell-Based System Using RT-PCR - 2144-04_Activator_Dose_CherryPick_Activity. (absACnn = the concentration at which the curve crosses threshold nn uM); assay type: functional
# [31] = activation of miR-122 Renilla sensor silencing – cell-based, Huh7 psiCHECK-miR122, Renilla luciferase, cherry-picked, dose response (AID 651956); assay type: functional;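 further: huh7 hepatoma cells stably carrying a psiCHECK-2 miR-122 sensor plasmid; renilla luciferase signal reporting endogenous miR-122 activity after 48 h compound exposure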
# [32] = cytotoxicity in HEK293 background cells – cell-based, dry powder, set 2, counter-screen for EBV LMP1 inhibitor project, dose response (AID 624374); assay type: functional
# [33] = liver cell line viability loss – HepG2, luminescence plate reader, powder samples, set 2, cytotoxicity control, dose response (AID 651860); assay type: functional, cell-based
# [34] = target: Metabotropic glutamate receptor 3 (Rattus norvegicus, UniProt P31422); assay: inhibitors of rat mGlu3 Galpha15 signaling – TREx293 cells, calcium flux, mGlu3 NAM project, dose response (AID 651840); assay type: functional
# [35] = anti-trypanosomal activity in BESM host cells – imaging, CA-I/72 strain, bovine embryo skeletal muscle, dry powder, dose response (AID 651885); assay type: functional, cell-based
# [36] = T. cruzi growth inhibition in host cells, dose response, cell-based, plate reader, dry powder, set 2 (AID 652275); assay type: functional
# [37] = target: Potassium channel subfamily K member 3 (Homo sapiens, UniProt O14649); assay: inhibition of human KCNK3 channel flux – CHO cells, FluxOR thallium flux, SAR follow-up (AID 652212); assay type: functional
# [38] = target: Potassium channel subfamily K member 9 (Homo sapiens, UniProt Q9NPC2); assay: KCNK9 flux blockade, concentration-response – cell-based, FluxOR thallium flux, selectivity assay for TASK1 inhibitor project, SAR follow-up (AID 652211); assay type: functional;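 further: potency is for inhibitors of the channel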
# Chain of Potassium channel subfamily K member 9 (Q9NPC2 whole entry): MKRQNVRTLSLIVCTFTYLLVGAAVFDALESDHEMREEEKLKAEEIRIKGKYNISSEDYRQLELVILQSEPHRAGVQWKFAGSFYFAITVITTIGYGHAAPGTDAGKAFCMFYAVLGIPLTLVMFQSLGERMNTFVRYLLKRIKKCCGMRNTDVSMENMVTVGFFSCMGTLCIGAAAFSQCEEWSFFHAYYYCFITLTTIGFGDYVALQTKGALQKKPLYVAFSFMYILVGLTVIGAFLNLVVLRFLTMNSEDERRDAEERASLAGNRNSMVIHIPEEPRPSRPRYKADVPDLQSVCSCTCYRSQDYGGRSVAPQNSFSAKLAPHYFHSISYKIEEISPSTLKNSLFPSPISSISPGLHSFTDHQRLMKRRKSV
# [39] = inhibitors of non-replicating M. tuberculosis, dose response, luciferase, dry powder (AID 651620); assay type: functional; settings: Mycobacterium tuberculosis
# [40] = inhibitors of non-replicating M. tuberculosis, dose response, luciferase, dry powder (AID 651619); assay type: functional; settings: Mycobacterium tuberculosis
# Protein Wnt-3a = Protein Wnt-3a (Mus musculus, UniProt P27467); assay: SAR analysis of small molecule antagonists of Gli-SUFU in a Wnt3a luminescent reporter assay.; assay type: functional
# [41] = reduced cellular PGC1a acetyl-lysine signal – cell-based, cherry-picked samples, dose response (AID 720514); assay type: functional;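 further: potency may reflect raised or lowered acetylation signal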
# cells [42] = settings: A549
# [43] = target: Induced myeloid leukemia cell differentiation protein Mcl-1 (Homo sapiens, UniProt Q07820); assay type: functional
# Chain of Induced myeloid leukemia cell differentiation protein Mcl-1 (Q07820 whole entry): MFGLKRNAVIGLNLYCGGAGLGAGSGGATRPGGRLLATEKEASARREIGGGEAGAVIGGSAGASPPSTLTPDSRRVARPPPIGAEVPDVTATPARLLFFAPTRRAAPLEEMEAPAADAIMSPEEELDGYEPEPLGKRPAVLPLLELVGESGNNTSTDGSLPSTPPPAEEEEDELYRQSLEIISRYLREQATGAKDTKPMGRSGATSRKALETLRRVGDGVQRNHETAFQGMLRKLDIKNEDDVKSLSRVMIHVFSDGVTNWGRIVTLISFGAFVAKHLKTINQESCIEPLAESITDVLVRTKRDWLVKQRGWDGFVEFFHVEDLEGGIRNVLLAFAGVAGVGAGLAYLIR
# [44] = viability loss in THP-1 monocytes – THP-1 cells, cytotoxicity control for Vif-APOBEC3G degradation inhibitor project, dose response (AID 1117359); assay type: functional; settings: THP-1
# T1 sequence (Q00975 whole entry): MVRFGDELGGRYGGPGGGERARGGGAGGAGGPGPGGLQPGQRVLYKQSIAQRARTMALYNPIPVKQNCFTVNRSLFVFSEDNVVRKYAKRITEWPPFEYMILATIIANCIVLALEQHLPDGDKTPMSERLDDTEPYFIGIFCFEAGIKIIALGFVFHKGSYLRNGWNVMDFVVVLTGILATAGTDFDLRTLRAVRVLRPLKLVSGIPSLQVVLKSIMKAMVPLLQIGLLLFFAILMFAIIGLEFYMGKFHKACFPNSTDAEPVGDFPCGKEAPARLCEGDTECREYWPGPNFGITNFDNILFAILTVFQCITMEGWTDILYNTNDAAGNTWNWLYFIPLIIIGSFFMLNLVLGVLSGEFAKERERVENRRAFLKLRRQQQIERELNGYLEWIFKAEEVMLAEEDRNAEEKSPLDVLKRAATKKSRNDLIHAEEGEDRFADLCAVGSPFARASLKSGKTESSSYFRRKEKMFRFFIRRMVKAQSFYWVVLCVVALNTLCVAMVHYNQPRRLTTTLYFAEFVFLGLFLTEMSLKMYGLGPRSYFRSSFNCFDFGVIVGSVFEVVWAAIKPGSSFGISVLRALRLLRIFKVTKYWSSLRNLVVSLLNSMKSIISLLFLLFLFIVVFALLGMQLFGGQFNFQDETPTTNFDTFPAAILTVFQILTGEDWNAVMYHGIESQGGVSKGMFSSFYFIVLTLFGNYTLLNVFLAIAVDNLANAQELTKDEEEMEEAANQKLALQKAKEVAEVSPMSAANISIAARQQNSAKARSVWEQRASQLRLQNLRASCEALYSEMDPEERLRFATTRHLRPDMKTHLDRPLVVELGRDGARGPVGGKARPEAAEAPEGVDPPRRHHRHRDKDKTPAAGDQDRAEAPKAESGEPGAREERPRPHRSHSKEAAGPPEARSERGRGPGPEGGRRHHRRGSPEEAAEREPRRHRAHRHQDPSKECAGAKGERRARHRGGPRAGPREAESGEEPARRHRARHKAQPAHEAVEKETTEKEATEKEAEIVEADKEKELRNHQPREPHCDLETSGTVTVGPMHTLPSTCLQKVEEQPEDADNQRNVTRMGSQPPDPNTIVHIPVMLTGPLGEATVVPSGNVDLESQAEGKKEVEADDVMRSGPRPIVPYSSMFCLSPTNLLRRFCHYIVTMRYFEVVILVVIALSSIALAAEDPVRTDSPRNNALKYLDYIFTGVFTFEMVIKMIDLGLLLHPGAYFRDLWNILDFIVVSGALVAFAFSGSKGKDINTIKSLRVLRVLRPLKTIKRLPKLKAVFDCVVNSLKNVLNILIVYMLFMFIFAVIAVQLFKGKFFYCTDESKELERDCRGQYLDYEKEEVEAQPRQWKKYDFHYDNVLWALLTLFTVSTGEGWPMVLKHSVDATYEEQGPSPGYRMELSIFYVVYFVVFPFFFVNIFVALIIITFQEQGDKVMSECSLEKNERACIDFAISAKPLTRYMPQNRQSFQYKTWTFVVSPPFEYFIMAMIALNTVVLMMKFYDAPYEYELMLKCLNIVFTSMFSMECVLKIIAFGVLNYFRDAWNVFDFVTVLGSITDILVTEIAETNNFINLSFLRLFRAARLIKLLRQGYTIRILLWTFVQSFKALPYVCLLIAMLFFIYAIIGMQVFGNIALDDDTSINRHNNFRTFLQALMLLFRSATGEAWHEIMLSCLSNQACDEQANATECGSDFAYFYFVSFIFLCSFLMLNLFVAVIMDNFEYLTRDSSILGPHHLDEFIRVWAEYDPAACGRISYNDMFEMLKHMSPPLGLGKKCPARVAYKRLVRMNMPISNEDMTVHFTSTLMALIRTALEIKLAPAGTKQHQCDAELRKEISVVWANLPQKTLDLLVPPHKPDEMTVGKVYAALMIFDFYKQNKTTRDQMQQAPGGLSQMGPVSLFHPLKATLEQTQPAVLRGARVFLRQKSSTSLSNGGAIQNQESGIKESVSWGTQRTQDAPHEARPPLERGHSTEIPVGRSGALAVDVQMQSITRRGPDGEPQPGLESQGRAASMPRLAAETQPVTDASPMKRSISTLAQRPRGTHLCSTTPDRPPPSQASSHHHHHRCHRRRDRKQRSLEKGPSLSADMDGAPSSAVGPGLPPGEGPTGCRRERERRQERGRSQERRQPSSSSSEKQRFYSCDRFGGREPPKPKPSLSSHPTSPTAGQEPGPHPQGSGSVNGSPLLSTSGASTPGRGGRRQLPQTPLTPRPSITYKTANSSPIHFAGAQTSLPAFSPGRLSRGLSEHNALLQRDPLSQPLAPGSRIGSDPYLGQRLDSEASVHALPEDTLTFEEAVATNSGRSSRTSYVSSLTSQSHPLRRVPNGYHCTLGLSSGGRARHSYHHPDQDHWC
# T1 sequence (Q02410 whole entry): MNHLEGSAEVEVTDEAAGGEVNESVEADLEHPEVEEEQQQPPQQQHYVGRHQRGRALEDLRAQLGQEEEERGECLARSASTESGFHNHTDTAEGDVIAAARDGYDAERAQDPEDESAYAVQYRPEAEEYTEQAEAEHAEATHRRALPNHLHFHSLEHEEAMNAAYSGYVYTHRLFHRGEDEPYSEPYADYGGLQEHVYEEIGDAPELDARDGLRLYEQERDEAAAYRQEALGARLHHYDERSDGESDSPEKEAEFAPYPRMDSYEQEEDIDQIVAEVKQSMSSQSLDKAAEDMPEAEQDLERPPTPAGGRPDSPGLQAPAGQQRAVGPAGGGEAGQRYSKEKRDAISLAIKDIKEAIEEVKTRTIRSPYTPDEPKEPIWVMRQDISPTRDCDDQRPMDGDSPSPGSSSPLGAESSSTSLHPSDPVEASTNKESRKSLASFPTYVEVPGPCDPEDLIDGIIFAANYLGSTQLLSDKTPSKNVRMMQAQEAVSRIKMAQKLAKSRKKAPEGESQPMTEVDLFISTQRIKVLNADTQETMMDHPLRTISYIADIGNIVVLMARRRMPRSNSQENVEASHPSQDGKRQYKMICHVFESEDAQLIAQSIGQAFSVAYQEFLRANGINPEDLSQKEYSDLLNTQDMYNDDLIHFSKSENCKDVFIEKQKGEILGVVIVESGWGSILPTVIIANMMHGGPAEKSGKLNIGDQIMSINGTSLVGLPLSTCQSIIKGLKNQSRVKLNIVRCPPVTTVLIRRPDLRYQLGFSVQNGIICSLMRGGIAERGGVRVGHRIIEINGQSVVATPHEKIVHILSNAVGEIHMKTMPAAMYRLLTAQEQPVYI
structure (smiles),measurement,setting,value
CCCn1nnnc1NCc1ccc(N2CCCC2)cc1,AC50,[1],> 160 µM (inactive)
COc1ccc2ccccc2c1C1CC(=O)N2CN(C3CCCCC3)CSC2=C1C#N (centres undefined),IC50,[2],> 50 µM (inactive)
same,IC50,[3],5.43 µM (active)
same,IC50,[4],> 56.8 µM (not active)
same,IC50,[5],> 80 µM (inactive)
same,IC50,[6],632 nM (active)
same,Ki,fMet-Leu-Phe receptor,19.7 µM (inactive)
Cc1ccc(-c2noc(-c3ccccc3F)n2)cc1,AC50,[7],26 µM (active)
CCCN1/C(=C2/SC(=S)N(CC)C2=O)C=Cc2ccccc21,IC50,[8],30.6 µM (inactive)
Cc1nc2cc(-c3ccccc3)sc2c(=O)n1N,AC50,[9],1.17 µM (active)
same,AC50,[10],5.97 µM (active)
same,EC50,BJ [11],12 µM (active)
same,AC50,[12],5.12 µM (active)
same,AC50,INS1,3.95 µM (active)
same,EC50,cells [13],7.12 µM (active)
same,EC50,[14],365 nM (active)
same,EC50,BJ [15],5.93 µM (active)
same,AC50,[16],5.13 µM (active)
same,EC50,BJ [17],2.32 µM (inconclusive)
same,EC50,[18],3.78 µM (active)
same,AC50,[19],868 nM (active)
same,EC50,cells [20],> 350 µM (not active)
same,EC50,[21],546 nM (active)
N#Cc1ccc(COC(=O)c2ccc(N3CCCC3)c([N+](=O)[O-])c2)cc1,EC50,[22],12 µM (inactive)
same,EC50,[23],450 nM (inactive)
O=C(NC(NC(=S)N1CCOCC1)C(Cl)(Cl)Cl)c1cccc2ccccc12 (centres undefined),AC50,[24],> 100 µM (inactive)
CC(=O)Nc1ccc(OCC(=O)Nc2ccc(Cl)c(S(=O)(=O)N3CCOCC3)c2)cc1,AC50,[25],53.5 µM (active)
same,AC50,[26],9.23 µM (active)
same,AC50,[27],1.59 µM (active)
same,AC50,[28],3.49 µM (active)
COc1ccc(-c2cc(NC=O)c3ncc(-c4cc(OC)c(OC)c(OC)c4)n3c2)c(OC)c1,AC50,A549,13.6 µM (active)
O=[N+]([O-])/C=C/c1cc2ccccc2[nH]1,CC50,[29],94.6 µM (active)
same,CC50,Vero,> 25 µM (active)
Cc1cccc(NC(=O)Nc2ccc3c(c2)C(=O)N(C)[C@@H]2CC[C@H](CC(=O)NCc4ccccc4Cl)O[C@H]2CO3)c1,AbsAC40_uM,[30],8.38 µM
same,AC50,[31],9.59 µM (active)
C[C@@H]1CN([C@@H](C)CO)C(=O)Cc2cc(NC(=O)Cc3ccccc3)ccc2O[C@@H]1CN(C)Cc1ccc(C(F)(F)F)cc1,AbsAC35,[32],279.95 µM
O=C(O)[C@@H]1CCCC[C@@H]1C(=O)N1CCc2ccccc2[C@@H]1CN1C(=O)c2ccccc2C1=O,AC50,[33],> 52 µM (inactive)
COc1ccc(C#Cc2ccc(C(=O)NC(C)CO)cc2)cc1 (centres undefined),IC50,[34],4.73 µM
C[C@H]1CN([C@@H](C)CO)C(=O)c2cccc(NC(=O)c3ccncc3)c2O[C@@H]1CN(C)Cc1ccncc1,IC50,[35],> 20 µM (inactive)
C[C@H]1CN([C@@H](C)CO)C(=O)c2cccc(NC(=O)c3ccncc3)c2O[C@@H]1CN(C)Cc1cccc(Cl)c1Cl,AC50,[36],25.5 nM (active)
CCOc1ccccc1NC(=O)c1cccc(NC(=O)C2CC2)c1,IC50,[37],1.07 µM (active)
same,IC50,[38],10.2 µM (active)
c1ccc(CSc2nnc(-c3ccncc3)o2)nc1,IC90,[39],16 µM (active)
same,IC90,[40],16 µM (active)
CC(C)(C)OC(=O)N1CCN(c2cc(NC(=O)c3ccccc3)ncn2)CC1,IC50,Protein Wnt-3a,> 21.8 µM (inactive)
Cc1cccn2c(=O)c3cc(C(=O)NCc4ccco4)c(=N)n(CCc4ccccc4)c3nc12,AC50,[41],28.4 µM (active)
same,AC50,cells [42],39.9 µM (active)
same,IC50,[43],3.57 µM (active)
same,CC50,[44],38.1 µM (active)

# Source: ChEMBL document CHEMBL1201862, “PubChem BioAssay data set” (2004)
